Read-outs that look alike come from different tables or passages of the source. Bounds are passed on as bounds.

The subject of this assay is AsPC-1 cells. The experiment in a line: Drug combination viability screen (ATPlite, 72 h).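 For AUC: area under vehicle-normalized viability curve scaled 0 to 100 percent.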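 For Curve bottom: fraction of vehicle control viability from four-parameter log-logistic fit.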 Details: key to AUC: AUC of dose-response curve; AUC∆ = AUChypothetical − AUCexperimental; Curve top / Curve bottom / Curve effect size: scale not given here. In kind it is cell-based, human. Conditions: for EC50: Homo sapiens. As for the experimental part:
Cell viability was assessed by measuring ATP levels to indicate metabolic activity.
Afterward, small amounts were transferred to 384-well intermediate plates (Greiner Bio-One GmbH, Germany). […] For drug combination screening, 1000 to 5000 cells were seeded into 384-well plates (CulturPlate™, Perkin Elmer, MA, USA) using a Multidrop™ Combi Reagent Dispenser (Thermo Scientific, MA, USA) in 50 µl medium per well 24 h prior to drug treatment (seeding densities see Appendix Table S1). […] The final DMSO concentration in each well was 0.2%. […] Eight wells per plate without library drug served as negative controls, and sixteen wells per plate containing 5 µM Staurosporine served as positive controls. Control plates not containing any drug were used to correct for incubation effects, and data quality was assessed by calculation of Z-prime of positive and negative controls according to1 Z-prime=1−3SDpos+3SDneg/[…] where SD is the standard deviation. […] Dose–response curves from the experimental and hypothetical data were compared, and shifts in AUC were used to describe combination effects (AUC∆ = AUChypothetical − AUCexperimental). […] Only combinations with R^2 > 0.8 in both conditions were considered in the synergy analysis.

As to `Nc1ccn([C@@H]2O[C@H](CO)[C@@H](O)C2(F)F)c(=O)n1` [GEM, Gemcitabine], the Reponse reads like this: (AsPC-1, R1, 13.72 nM) 1567840; (AsPC-1, R1, 41.15 nM) 1226120; (AsPC-1, R1, 123.46 nM) 1025760; (AsPC-1, R1, 370.37 nM) 921880; (AsPC-1, R1, 1111.11 nM) 872680; (AsPC-1, R1, 3333.33 nM) 849760. Also, the Reponse is, setting by setting: (AsPC-1, R1, 10000 nM) 784080; (AsPC-1, R2, 13.72 nM) 1654800; (AsPC-1, R2, 41.15 nM) 1220360; (AsPC-1, R2, 123.46 nM) 984000; (AsPC-1, R2, 370.37 nM) 972200; (AsPC-1, R2, 1111.11 nM) 963400. The Reponse (AsPC-1, R2, 10000 nM) is on record as 773560. Besides, the AUC (AsPC-1, GEM curve fit) is given as 70.34. For the same molecule, the Curve bottom (AsPC-1, GEM curve fit) is given as 0.46. In addition, the Curve effect size (AsPC-1, GEM curve fit) is 0.55. For the same molecule, the Curve slope (AsPC-1, GEM curve fit) was found to be 1.15. In addition, the Curve top (AsPC-1, GEM curve fit) turned out to be 1.04. Besides, the “GEM low only (raw)” value (AsPC-1, luminescence signal, plate mean, GEM 10 nM) stood at 1700020. For the same molecule, the “GEM high only (raw)” value (AsPC-1, luminescence signal, plate mean, GEM 30 nM) is given as 1564215. Besides, the EC50 runs as follows: (ASPC1, read-out: EC50,GEM) not below 10 nM; (ASPC1, read-out: EC50) 27.1 nM; (ASPC1, read-out: pEC50 (converted)) 26.9 nM.

Values taken from PMC11876601 (Molecular Systems Biology, 2025).
